The values below come from PMC4067742, “Direct Observations of Amyloid β Self-Assembly in Live Cells Provide Insights into Differences in the Kinetics of Aβ(1–40) and Aβ(1–42) Aggregation” (Chemistry & Biology, 2014).

Assay [1] has as its system SH-SY5Y human neuroblastoma cells. The experiment in a line: Confocal microscopy of uptake and intracellular localization. The class given is cell-based. The conditions noted are these: for intracellular HF488 fluorescence (uptake) after 30 min: 500 nM monomeric peptide in medium, colocalized with endocytosis marker FM 4–64; for intracellular HF488 fluorescence (uptake) after 30 min / intracellular localization after 24 hr: confocal fluorescence; for intracellular localization after 24 hr: 500 nM peptide 24 hr, then 1 hr with 100 nM LysoTracker red; for uptake at 4°C: 1 hr at 4°C (inhibits endocytosis) compared with 37°C, cells washed before confocal imaging. The protocol: Aβ peptides have been reported to be internalized into a variety of cell types, including neurons ([Burdick et al., 1997; Friedrich et al., 2010; Hu et al., 2009; Kaminski Schierle et al., 2011b; McGuire et al., 2012]). To characterize the uptake and intracellular localization of the peptides under the conditions used in our study, we added aliquots of monomeric ^HF488Aβ(1–40) or ^HF488Aβ(1–42) to cultures of SH-SY5Y human neuroblastoma cells to give a total peptide concentration of 500 nM in the cellular medium. […] The neuronal cells were also incubated for 1 hr at 37°C and at 4°C to compare uptake under conditions that, respectively, permit or inhibit endocytosis.
Human neuroblastoma cells (SH-SY5Y) were grown in 1:1 minimal essential medium (MEM) and nutrient mixture F-12 Ham (Sigma-Aldrich) with sodium bicarbonate, including 15% heat-inactivated fetal bovine serum, 1% MEM non-essential amino acids, 2 mM […], 1% penicillin-streptomycin (10,000 U/ml K1), and 0.1% fungizone (amphotericin B, […] K1) (Life Technologies). Cells were plated 1 day prior to experiments in glass-bottomed culture dishes (MatTek) at a density of 50,000 cells/14-mm dish. All samples were washed once in CO2-independent, serum- and phenol red-free medium (prepared as above but with exclusion of serum and addition of 30 mM HEPES and B12 supplement [Gibco]). All experiments with cells were performed in at least duplicates and repeated at least three times. The Aβ concentration was 500 nM in all experiments.
All uptake and colocalization experiments were carried out with the HF488-labeled Aβ peptides using a Leica SP5 confocal microscope (Leica Microsystems). For colocalization with FM 4–64 (Life Technologies), 5 μg/ml of the dye was added together with the peptide, and images were recorded after 1 hr of incubation. Both dyes were excited by the 488-nm laser line. HF488 emission was collected from 520–580 nm and FM 4–64 emission between 700–800 nm. For colocalization with LysoTracker red (Life Technologies), cells were incubated with HF488-labeled peptide for 24 hr, washed once with serum-free medium, and thereafter incubated for 1 hr with 100 nM LysoTracker red before images were recorded. LysoTracker red was excited using the […] laser line, and emission was collected between 700–800 nm. Sequential acquisition was used in all experiment to avoid bleed-through and cross-excitation. Cellular uptake at 4°C was assessed by keeping the cells in a cold room during incubation. The cells were washed prior to imaging to avoid uptake while observing the cells on the microscope.

The test system of another assay is SH-SY5Y cells. Put plainly: Live cell FLIM of intracellular aggregation. Conditions: 500 nM peptide in culture medium; for lag phase of intracellular aggregation: 0–48 hr, live cell FLIM (Figure 4D). The class given is cell-based, human. The text has this: Having established that the fluorescence lifetime of HF488 acts as a reporter of amyloid formation of Aβ(1–40) and Aβ(1–42), we set out to investigate how the aggregation state of each of the two peptide isoforms is affected by its cellular uptake and accumulation in acidic organelles in SH-SY5Y cells. Using FLIM, we observed that there are no significant differences (p = 0.95, Table S1) in the fluorescence lifetimes of extracellular and internalized ^HF488Aβ(1–40) during the first 6 hr after application of 500 nM peptide to the culture medium (Figures 4A and 4D), indicating the presence of similar ^HF488Aβ(1–40) species within the cells as those applied to the extracellular environment. […] We then examined the cells treated with the same concentration of ^HF488Aβ(1–40) for 24 and 48 hr (Figures 4C and 4D), washing them prior to imaging to remove any extracellular fluorescence. […] The difference compared with the extracellular starting value, however, is statistically significant first after 48 hr (p = 0.0032, Table S1). […]
All FLIM experiments were carried out using HF488-labeled Aβ peptides, and images were recorded by time-correlated single photon counting (TCSPC) using a confocal microscopy platform built on an Olympus Fluoview FV300 confocal scan unit. […] The excitation beam was reflected onto the sample with a 20/80 broad bandwidth coated beam splitter so that 20% of the excitation light passed on to the sample and 80% of the fluorescence signal was reflected toward the confocal pinhole. The fluorescence light was passed through a 515-nm Semrock long-pass filter (Laser 2000) and passed onto a fast photomultiplier tube (PMC-100, Becker & Hickl). Lifetimes were recorded using TCSPC circuitry (SPC-830, Becker & Hickl). […] The instrument response was measured using reflected light from either a coverslip or a coated mirror. […]

Values joined by “and” are separate entries in the source; they are usually repeats but may differ in a detail not shown here. Equal values may be shown once.

Consider “^HF488Aβ(1–40): Synthetic 40-residue amyloid β peptide labeled at the N terminus with Hilyte Fluor 488, purchased from Anaspec”, for which, in assay [1], the “intracellular HF488 fluorescence (uptake) after 30 min” value is listed as “observed readily” and the “intracellular localization after 24 hr” value is recorded as “colocalize with LysoTracker red”. The “cellular uptake after 10 minutes” value in assay [1] (500 nM peptide, 10 minutes, confocal fluorescence with Z-scanning (Figure S3)) is “vesicular uptake”. For the same substance, the “uptake at 4°C” value in assay [1] (500 nM peptide) is “did not internalize any detectible quantities”. Further, in the assay with SH-SY5Y cells, the “lag phase of intracellular aggregation” value is “appears to exhibit a lag phase”. The “endpoint value of intracellular fluorescence lifetime” value with SH-SY5Y cells (endpoint (48h, p = 0.22 Table S2), cells washed once, live cell FLIM) is 3.35 ± 0.2 ns and 3.31 ± 0.2 ns.

Take “^HF488Aβ(1–42): Synthetic 42-residue amyloid β peptide labeled at the N terminus with Hilyte Fluor 488, purchased from Anaspec”: in assay [1], the “intracellular HF488 fluorescence (uptake) after 30 min” value is on record as “observed readily” and the “intracellular localization after 24 hr” value was “colocalize with LysoTracker red”. Further, the “uptake at 4°C” value in assay [1] (500 nM peptide) is given as “did not internalize any detectible quantities”. Also, in the assay with SH-SY5Y cells, the “lag phase of intracellular aggregation” value is listed as “shows no such effect”.
